ChEMBL document CHEMBL1128964, “Synthesis and analgesic activity of Epibatidine analogues” (Bioorg Med Chem Lett, 1996)
The source made the active and inactive calls. No cut-off for these calls is given here.

How the values were obtained:
Mus musculus [1] = assay: Dose of compound that caused analgesic activity in mice after intraperitoneal administration; assay type: functional
[2] = Lethal dose determined in Mice; assay type: toxicity; conditions: mouse, in vivo
Mus musculus [3] = assay: Compound was tested for analgesic activity in mice after intraperitoneal administration at a dose of 10 ug/kg; Significant; assay type: functional, organism-based
Mus musculus [4] = assay: Compound was tested for analgesic activity in mice after intraperitoneal administration at a dose of 10 ug/kg; less potent; assay type: functional, organism-based

`Clc1ccc(C2CC3CCCC2N3)cn1` (centres undefined) [HOMOEPIBATIDINE] showed a Dose (Mus musculus [1]) of 0.04 mg/kg and an LD50 [2] of 10 mg/kg.

For `Clc1ccc(C2CC3CCC2N3)cn1` (racemic), the Activity (Mus musculus [3]) was “Active”.

In the case of `Clc1ccc(C2CCNC2)cn1` (centres undefined), the Activity (Mus musculus [4]) is reported as “less potent”.
